# In patent US6031135A, “Trimethylsphingosine derivatives” (Oncomembrane, Inc., priority 1996, dated 2000):
# Key:
# B16BL6 melanoma cells = experiment: metastasis of B16BL6 melanoma cells (lung metastatic deposits in mice); assay type: in vivo, mouse; design: key to Inhibition of metastasis: +: effective; -: not effective
# Method: BL6 cells were injected into mice and metastatic deposits in the lung were assessed after various treatments including route and timing, of administration.
# platelets = experiment: platelet aggregation (aggregometer, thrombin or ADP); assay type: cell-based; design: key to Inhiition of PA: +: effective; -: not effective
# Method: Platelets were isolated from platelet-rich plasma (purchased from the Oregon Red Cross, Portland, Oreg.). Contaminating erythrocytes were removed by centrifugation (80×g for 10 minutes). Platelets were obtained by centrifugation (300×g for 10 minutes), washed once in Tyrode buffer (pH 6.5) containing 22 mM trisodium citrate and 0.35% (w/v) BSA and resuspended in the same buffer to obtain a concentration of 1-2×10^9 platelets/ml. All procedures were performed at room temperature.
# A suspension of platelets (about 3.5×10^8 /ml) in Tyrode buffer was preincubated with inhibitor compounds (H-7 [1-(5-isoquinolinylsulfonyl)-2-methylpiperazine, a synthetic protein kinase-C inhibitor purchased from Seikagaku America Inc., St. Petersburg, Fla.], Calphostin-C [a synthetic protein kinase-C inhibitor obtained from Dr. Saitoh, Kyowa Hakko Co., Ltd., Machida, Tokyo, Japan], sphingosine [purchased from Sigma, St. Louis, Mo.] and dimethylsphingosine and trimethylsphingosine [synthesized according to Igarashi et al., Biochem., 28, 6796, 1989]) followed by addition of thrombin or ADP (both purchased from Sigma). Platelet aggregation was evaluated by transmittance change using an aggregometer (Chrono-log Corp., Havertown, Pa.) equipped with a computer analyzer.
# PK-C [1] = experiment: PK-C activity bioassay (histone III-S or myelin basic protein substrate); assay type: biochemical, human (A431 cells) or mouse brain; design: key: +: effective; -: not effective
# Method: In another in vitro assay, the influence of various compounds on PK-C activity was monitored. Certain tumor cells present high levels of PK-C activity. The human epidermoid carcinoma cell line A-431 (ATCC No. CRL 1555) was used in a bioassay for PK-C activity as described in Igarashi et al. (supra). Briefly, phosphatidylserine (5 μg/tube) and 1,2-diolein (0.05 μg/tube), with or without an appropriate quantity of a sphingosine derivative sample, were added in an organic solvent, ethanol or ethanol/chloroform, to a 1.5 ml tube (Sarstedt) and the mixture was evaporated under a N2 stream. The lipid mixture was sonicated in about 30 μl of 20 mM Tris-HCl (pH 7.5) for 30 minutes.
# The resulting liposomes were supplemented with a buffer mixture comprising 25 mM Tris-HCl (pH 7.5), 10 mM MgCl2, […], 50 μM EGTA, 500 μM CaCl2, […] histone III-S or myelin basic protein and 20 μM γ[^32 P]-ATP (2×10^6 cpm) to a final volume of about 90 μl. […]
# The precipitate was collected by centrifugation, washed twice with 1 ml of 25% TCA, then dissolved in 1 ml of 1 M NaOH containing 0.1% deoxycholate with slight heating (80° C. for ten minutes) and counted in a scintillation counter. […]
# HL60 cells = experiment: HL60 adhesion on activated platelet-coated solid phase; assay type: cell-based, human; settings: thrombin-stimulated and PMA-stimulated platelets
# Method: HL60 (a human promylelocytic cell line available from the ATCC under accession number CCL 240) adhesion on resting or activated platelet-coatedsolid phase was evaluated as follows. Each well of a 48-well plate (Costar Scientific, Cambridge, Mass.) was filled with a poly-L-lysine solution (100 μg/ml in PBS) and incubated for 1 hour. Each well then was washed with PBS and then 150 μl of PBS containing 6×10^7 resting or activated platelets were added to each well and the plate was incubated for 1 hour. Plates were centrifuged (300×g for 7 minutes) and incubated a further 30 minutes at room temperature. Bound platelets were fixed by addition of 0.1% (w/v) glutaraldehyde in PBS for 2 minutes at 4° C. Each well was washed with 10 mM glycine in PBS and plates were incubated with 5% (w/v) BSA containing 0.1% (w/v) sodium azide, 10 mM glycine in PBS for 1 hour at room temperature.
# [2] = test system: 47 kDa and 65 kDa proteins; experiment: PMA-stimulated protein phosphorylation in 32P-labeled neutrophils; assay type: cell-based, human; settings: neutrophils pre-incubated with 15-45 μM, then 1.5 μM PMA
# Method: Excess unbound components were removed by centrifugation and the pellets were resuspended in the same buffer, repeating twice. The cells then were divided into 7 treatment groups, each containing ≈1×10^7 cells in a total volume of 0.4 ml. TMS, SPN or DMS was added to a suspension and incubated at 37° C. for 10 min, followed by addition of PMA to a final concentration of 1.5 μM. Two minutes later, the reaction was terminated by adding 0.1 ml of Laemmli sample buffer and 20 mM EDTA, followed by heating at 100° C. for 5 min. Aliquots were separated through 10% sodium dodecyl sulfate gels using known procedures. ^32 P incorporation was visualized by autoradiography.
# water solubility = assay type: physicochemical; settings: particularly at physiologic pH
# PK-C [3] = settings: literature (Hannun & Bell; Merrill & Stevens); cited from earlier work
# [4] = Preincubation with free derivative
smiles,measurement,setting,value
CCCCCCCCCCCCCC#CC(O)C(CO)[N+](C)(C)C (stereo not shown) [4-alkyn-TMS],Inhibition of metastasis,"B16BL6 melanoma cells; B16BL6 melanoma cells, no readable footnote on the cell",+
C[N+](C)(C)[C@@H](CO)[C@H](O)/C=C/CCCCCCCCCCCCC(=O)O [Carboxy TMS],Inhiition of PA,platelets,-
same,PKC inhibition,PK-C [1],-
same,Inhibition of metastasis,B16BL6 melanoma cells; [4],-
CCCCCCCCCCCCCCCC(O)C(CO)[N+](C)(C)C (stereo not shown) [DHTMS],Inhibition of metastasis,B16BL6 melanoma cells; Experimental and spontaneous metastasis with liposomal formulation,+
"CCCCCCCCCCCCC/C=C/C(O)C(CO)N(C)C (stereo not shown) [DMS, N,N-dimethylsphingosine]",HL60 cell binding,HL60 cells,inhibited strongly
same,phosphorylation of 47 kDa and 65 kDa proteins,[2],diminished significantly
same,water solubility,water solubility,less water soluble
"CCCCCCCCCCCCC/C=C/C(O)C(CO)NC (stereo not shown) [MMS, N-monomethylsphingosine]",water solubility,water solubility,less water soluble
COC(=O)CCCCCCCCCCCC/C=C/[C@@H](O)[C@H](CO)[N+](C)(C)C [Methylcarboxy TMS],Inhiition of PA,platelets,-
same,PKC inhibition,PK-C [1],-
same,Inhibition of metastasis,B16BL6 melanoma cells; [4],-
"CCCCCCCCCCCCC/C=C/[C@@H](O)[C@@H](N)CO [sphingosine, Sphingosine]",HL60 cell binding,HL60 cells,minimally inhibited
same,phosphorylation of 47 kDa and 65 kDa proteins,[2],diminished significantly
same,water solubility,water solubility,less water soluble
same,PK-C activity,PK-C [3],inhibited
